Measurements as given in publication PMC4751974, “Deriving Heterospecific Self-Assembling Protein–Protein Interactions Using a Computational Interactome Screen” (Journal of Molecular Biology, 2016).

System: coiled-coil pairs within the eight-peptide interactome
Test: Thermal denaturation followed by CD at 222 nm (Tm of coiled-coil pairs)
Type: binding
Conditions: Table 1 and text, CD 222 nm, 150 μM total peptide (75 μM per peptide for heterodimers), 10 mM potassium phosphate, 100 mM potassium fluoride, pH 7, -8 to 95 °C in 1 °C steps, two-state fit
Experimental: CD was carried out using an Applied Photophysics Chirascan CD apparatus (Leatherhead, UK) using a 200-μl sample in a CD cell with a 1-mm path length. Samples contained 150 μM total peptide (Pt) concentration at equimolar concentration for heterodimeric solutions (i.e., 75 μM per peptide) and suspended in 10 mM potassium phosphate and 100 mM potassium fluoride at pH 7 1 h prior to analysis. The CD spectra of samples were scanned between 300 nm and 190 nm in 1-nm steps, averaging 0.5 s at each wavelength. Three scans at 20 °C were averaged to assess helical levels and coiled-coil structure.
Thermal denaturations were performed at 150 μM Pt in 10 mM potassium phosphate and 100 mM potassium fluoride, pH 7, using an Applied Photophysics Chirascan CD instrument (Leatherhead, UK). The temperature ramp was set to stepping mode using 1 °C increments and paused for 30 s at each temperature before measuring ellipticity at 222 nm. For all temperature denaturation experiments, data collection was started at − 8 °C, and at this temperature, the peptide solutions remained aqueous. Data collection continued to 95 °C. Data points for thermal denaturation profiles represent the averaged signal after 4 s of data collection. Melting profiles (see Fig. 3a) were ≥ 95% reversible with equilibrium denaturation curves fitted to a two-state model, derived via modification of the Gibbs–Helmholtz equation [6], [45], [46], to yield the melting temperature (Tm). […] Tm values were determined by least-squares fitting of the denaturation assuming a two-state folding model that is widely used for coiled coils and provided an excellent fit to our data.

ASENAALEAKIAALKYEIAALEAKNAALKGAP [Peptide 6, N- and C-capped coiled-coil peptide; 6-6 is the homomeric sample]
Tm: 53 °C

ASKNAALKAEIAALEYKIAALKAENAALEGAP [Peptide 5, N- and C-capped coiled-coil peptide; 5-5 is the homomeric sample]
Tm: 53 °C

ASKIAALKAKNAALKYENAALEAEIAALEGAP [Peptide 7, N- and C-capped coiled-coil peptide; 7-7 is the homomeric sample]
Tm (listed as 7-7): 11 °C

ASENAALEAKNAALKYKIAALKAEIAALEGAP [Peptide 1, N- and C-capped coiled-coil peptide; 1-1 is the homomeric sample]
Tm: 32 °C

ASKNAALKAENAALEYEIAALEAKIAALKGAP [Peptide 2, N- and C-capped coiled-coil peptide; 2-2 is the homomeric sample]
Tm: 20 °C

ASEIAALEAENAALEYKNAALKAKIAALKGAP [Peptide 8, N- and C-capped coiled-coil peptide; 8-8 is the homomeric sample]
Tm (listed as 8-8): 27 °C
